According to US20260262643A1, “HERBICIDAL BENZOXAZINES” (FMC CORPORATION, priority 2022, published 2026):

Assays:
[1] = test system: barnyardgrass; experiment: Test C preemergence; type: in vivo, Echinochloa crusgalli; conditions: for Barnyardgrass plant response rating: preemergence; for Plant response rating, Barnyardgrass: Preemergence
Summary of the method: (§1)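 Test material, in non-phytotoxic solvent with surfactant, was sprayed on the soil directly after seeding (preemergence) or on young plants of 2–10 cm with one to two leaves (postemergence). Greenhouse, 10 days; 0–100 visual control scale.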

[2] = test system: blackgrass; experiment: Test C preemergence; type: in vivo, Alopecurus myosuroides; conditions: for Blackgrass plant response rating: preemergence; for Plant response rating, Blackgrass: Preemergence
Summary of the method: as §1

[3] = test system: corn; experiment: Test C preemergence; type: in vivo, Zea mays; conditions: for Corn plant response rating: preemergence; for Plant response rating, Corn: Preemergence
Summary of the method: as §1

[4] = test system: green foxtail; experiment: Test C preemergence; type: in vivo, Setaria viridis; conditions: for Foxtail, Green plant response rating: preemergence; for Plant response rating, Foxtail, Green: Preemergence
Summary of the method: as §1

[5] = test system: kochia; experiment: Test C preemergence; type: in vivo, Bassia scoparia; conditions: for Kochia plant response rating: preemergence; for Plant response rating, Kochia: Preemergence
Summary of the method: as §1

[6] = test system: oat, wild; experiment: Test C preemergence; type: in vivo, Avena fatua; conditions: for Oat, Wild plant response rating: preemergence; for Plant response rating, Oat, Wild: Preemergence
Summary of the method: as §1

[7] = test system: pigweed, palmer; experiment: Test C preemergence; type: in vivo, Amaranthus palmeri; conditions: for Pigweed, Palmer plant response rating: preemergence; for Plant response rating, Pigweed, Palmer: Preemergence
Summary of the method: as §1

[8] = test system: ragweed; experiment: Test C preemergence; type: in vivo, Ambrosia artemisiifolia; conditions: for Ragweed plant response rating: preemergence; for Plant response rating, Ragweed: Preemergence
Summary of the method: as §1

[9] = test system: ryegrass, Italian; experiment: Test C preemergence; type: in vivo, Lolium multiflorum; conditions: for Ryegrass, Italian plant response rating: preemergence; for Plant response rating, Ryegrass, Italian: Preemergence
Summary of the method: as §1

[10] = test system: soybean; experiment: Test C preemergence; type: in vivo, Glycine max; conditions: for Soybean plant response rating: preemergence; for Plant response rating, Soybean: Preemergence
Summary of the method: as §1

[11] = test system: wheat; experiment: Test C preemergence; type: in vivo, Triticum aestivum; conditions: for Wheat plant response rating: preemergence; for Plant response rating, Wheat: Preemergence
Summary of the method: as §1

[12] = test system: barnyardgrass; experiment: Test C postemergence; type: in vivo, Echinochloa crusgalli; conditions: 10 days
Summary of the method: as §1

[13] = test system: blackgrass; experiment: Test C postemergence; type: in vivo, Alopecurus myosuroides; conditions: 10 days
Summary of the method: as §1

[14] = test system: corn; experiment: Test C postemergence; type: in vivo, Zea mays; conditions: 10 days
Summary of the method: as §1

[15] = test system: green foxtail; experiment: Test C postemergence; type: in vivo, Setaria viridis; conditions: 10 days
Summary of the method: as §1

[16] = test system: kochia; experiment: Test C postemergence; type: in vivo, Bassia scoparia; conditions: 10 days
Summary of the method: as §1

[17] = test system: oat, wild; experiment: Test C postemergence; type: in vivo, Avena fatua; conditions: 10 days
Summary of the method: as §1

[18] = test system: pigweed, palmer; experiment: Test C postemergence; type: in vivo, Amaranthus palmeri; conditions: 10 days
Summary of the method: as §1

[19] = test system: ragweed; experiment: Test C postemergence; type: in vivo, Ambrosia artemisiifolia; conditions: 10 days
Summary of the method: as §1

[20] = test system: ryegrass, Italian; experiment: Test C postemergence; type: in vivo, Lolium multiflorum; conditions: 10 days
Summary of the method: as §1

[21] = test system: soybean; experiment: Test C postemergence; type: in vivo, Glycine max; conditions: 10 days
Summary of the method: as §1

[22] = test system: wheat; experiment: Test C postemergence; type: in vivo, Triticum aestivum; conditions: 10 days
Summary of the method: as §1

[23] = test system: galium; experiment: Test C postemergence; type: in vivo, Galium aparine; conditions: 10 days
Summary of the method: as §1

[24] = test system: horseweed; experiment: Test C postemergence; type: in vivo, Erigeron canadensis; conditions: 10 days
Summary of the method: as §1

[25] = test system: barnyardgrass; experiment: Test D flooded paddy test; type: in vivo, Echinochloa crus-galli; conditions: 250 g ai/ha, applied to paddy water, visual rating after 13 to 14 days, scale 0 to 100 (0 no effect, 100 complete control)
Summary of the method: (§2)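 Visual ratings from 0, meaning no effect, to 100, meaning complete control, were assigned against untreated controls 13 to 14 days after compounds were added to the floodwater of pots kept 3 cm deep, with plants at the 2-leaf stage.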

[26] = test system: ducksalad; experiment: Test D flooded paddy test; type: in vivo, Heteranthera limosa; conditions: 250 g ai/ha, applied to paddy water, visual rating after 13 to 14 days, scale 0 to 100 (0 no effect, 100 complete control)
Summary of the method: as §2

[27] = test system: rice; experiment: Test D flooded paddy test; type: in vivo, Oryza sativa; conditions: 250 g ai/ha, applied to paddy water, visual rating after 13 to 14 days, scale 0 to 100 (0 no effect, 100 complete control)
Summary of the method: as §2

[28] = test system: sedge, umbrella; experiment: Test D flooded paddy test; type: in vivo, Cyperus difformis; conditions: 250 g ai/ha, applied to paddy water, visual rating after 13 to 14 days, scale 0 to 100 (0 no effect, 100 complete control)
Summary of the method: as §2

[29] = 500 g ai/ha, 0 to 100 scale (0 no effect, 100 complete control)
[30] = 125 g ai/ha, 0 to 100 scale, 0 no effect, 100 complete control
[31] = 500 g ai/ha, postemergence, 0 to 100 scale (0 no effect, 100 complete control)
[32] = Postemergence, 125 g ai/ha, 0 to 100 scale (0 no effect, 100 complete control)
[33] = 500 g ai/ha, visual rating after 10 days, 0 to 100 scale (0 no effect, 100 complete control)
[34] = Test C, 125 g ai/ha, 0 to 100 scale (0 no effect, 100 complete control)
[35] = 125 g ai/ha, postemergence, 0 to 100 scale, 0 no effect, 100 complete control
[36] = Postemergence, 500 g ai/ha, visual 0 to 100 scale (0 no effect, 100 complete control)

CCOC[C@H]1CN(C(=O)c2cc(-n3cnc(CC)n3)cc3c2OCCO3)c2cccc(Cl)c2O1 [Compound 387]
Barnyardgrass plant response rating [1, 29]: 100 | Plant response rating, Barnyardgrass [1, 30]: 50 | Blackgrass plant response rating [2, 29]: 20 | Plant response rating, Blackgrass [2, 30]: 0 | Corn plant response rating [3, 29]: 30 | Plant response rating, Corn [3, 30]: 0 | Foxtail, Green plant response rating [4, 29]: 100 | Plant response rating, Foxtail, Green [4, 30]: 50 | Kochia plant response rating [5, 29]: 100 | Plant response rating, Kochia [5, 30]: 20 | Oat, Wild plant response rating [6, 29]: 70 | Plant response rating, Oat, Wild [6, 30]: 40 | Pigweed, Palmer plant response rating [7, 29]: 100 | Plant response rating, Pigweed, Palmer [7, 30]: 100 | Ragweed plant response rating [8, 29]: 100 | Plant response rating, Ragweed [8, 30]: 80 | Ryegrass, Italian plant response rating [9, 29]: 80 | Plant response rating, Ryegrass, Italian [9, 30]: 60 | Soybean plant response rating [10, 29]: 100 | Plant response rating, Soybean [10, 30]: 90 | Wheat plant response rating [11, 29]: 30 | Plant response rating, Wheat [11, 30]: 10 | Plant response rating, Barnyardgrass [12, 31]: 60 | Plant response rating, Barnyardgrass [12, 32]: 20 | Plant response rating, Blackgrass [13, 31]: 90 | Plant response rating, Blackgrass [13, 32]: 60 | Plant response rating, Corn [14, 31]: 70 | Plant response rating, Corn [14, 32]: 10 | Plant response rating, Foxtail, Green [15, 31]: 80 | Plant response rating, Foxtail, Green [15, 32]: 40 | Plant response rating, Kochia [16, 31]: 100 | Plant response rating, Kochia [16, 32]: 80 | Plant response rating, Oat, Wild [17, 31]: 20 | Plant response rating, Oat, Wild [17, 32]: 0 | Plant response rating, Pigweed, Palmer [18, 31]: 100 | Plant response rating, Pigweed, Palmer [18, 32]: 90 | Plant response rating, Ragweed [19, 31]: 80 | Plant response rating, Ragweed [19, 32]: 70 | Plant response rating, Ryegrass, Italian [20, 31]: 80 | Plant response rating, Ryegrass, Italian [20, 32]: 40 | Plant response rating, Soybean [21, 31]: 100 | Plant response rating, Soybean [21, 32]: 100 | Plant response rating, Wheat [22, 31]: 30 | Plant response rating, Wheat [22, 32]: 10 | Plant response rating, Galium [23, 31]: 100 | Plant response rating, Galium [23, 32]: 100 | Plant response rating, Horseweed [24, 31]: 60 | Plant response rating, Horseweed [24, 32]: 50 | Plant response rating, Barnyardgrass (Flood) [25]: 25 | Plant response rating, Ducksalad (Flood) [26]: 20 | Plant response rating, Rice (Flood) [27]: 10 | Plant response rating, Sedge, Umbrella (Flood) [28]: 70

Cc1cc(-n2cnc(C(C)C)n2)cc(C(=O)N2C[C@H](C)Oc3c(Cl)cccc32)c1Cl [Compound 220]
Plant response rating, Barnyardgrass [1, 33]: 80 | Barnyardgrass plant response rating [1, 34]: 50 | Plant response rating, Blackgrass [2, 33]: 70 | Blackgrass plant response rating [2, 34]: 40 | Plant response rating, Corn [3, 33]: 10 | Corn plant response rating [3, 34]: 0 | Plant response rating, Foxtail, Green [4, 33]: 100 | Foxtail, Green plant response rating [4, 34]: 100 | Plant response rating, Kochia [5, 33]: 90 | Kochia plant response rating [5, 34]: 80 | Plant response rating, Oat, Wild [6, 33]: 70 | Oat, Wild plant response rating [6, 34]: 60 | Plant response rating, Pigweed, Palmer [7, 33]: 100 | Pigweed, Palmer plant response rating [7, 34]: 90 | Plant response rating, Ragweed [8, 33]: 0 | Ragweed plant response rating [8, 34]: 0 | Plant response rating, Ryegrass, Italian [9, 33]: 90 | Ryegrass, Italian plant response rating [9, 34]: 80 | Plant response rating, Soybean [10, 33]: 80 | Soybean plant response rating [10, 34]: 0 | Plant response rating, Wheat [11, 33]: 70 | Wheat plant response rating [11, 34]: 20 | Plant response rating, Barnyardgrass [12, 35]: 30 | Plant response rating, Barnyardgrass [12, 36]: 90 | Plant response rating, Blackgrass [13, 35]: 40 | Plant response rating, Blackgrass [13, 36]: 50 | Plant response rating, Corn [14, 35]: 10 | Plant response rating, Corn [14, 36]: 20 | Plant response rating, Foxtail, Green [15, 35]: 20 | Plant response rating, Foxtail, Green [15, 36]: 50 | Plant response rating, Kochia [16, 35]: 70 | Plant response rating, Kochia [16, 36]: 90 | Plant response rating, Oat, Wild [17, 35]: 0 | Plant response rating, Oat, Wild [17, 36]: 0 | Plant response rating, Pigweed, Palmer [18, 35]: 90 | Plant response rating, Pigweed, Palmer [18, 36]: 100 | Plant response rating, Ragweed [19, 35]: 0 | Plant response rating, Ragweed [19, 36]: 0 | Plant response rating, Ryegrass, Italian [20, 35]: 30 | Plant response rating, Ryegrass, Italian [20, 36]: 70 | Plant response rating, Soybean [21, 35]: 100 | Plant response rating, Soybean [21, 36]: 100 | Plant response rating, Wheat [22, 35]: 20 | Plant response rating, Wheat [22, 36]: 20 | Plant response rating, Galium [23, 35]: 100 | Plant response rating, Galium [23, 36]: 100 | Plant response rating, Horseweed [24, 35]: 60 | Plant response rating, Horseweed [24, 36]: 30 | Plant response rating, Barnyardgrass (Flood) [25]: 0 | Plant response rating, Ducksalad (Flood) [26]: 0 | Plant response rating, Rice (Flood) [27]: 0 | Plant response rating, Sedge, Umbrella (Flood) [28]: 0
